Source: patent publication US20210338719A1 (SOCIETE DES PRODUITS NESTLE S.A., priority 2017, published 2021)

Experiment: Oxidation of LC-PUFAs caused by iron source
Format: physicochemical
Details: iron source in composition containing LC-PUFAs

Structure (SMILES) | Oxidation of LC-PUFAs
O.O.O.O.O.O.O.O=S(=O)([O-])[O-].[Fe+2] [ferrous sulphate heptahydrate] | significant oxidation of LC-PUFAs
O.O=S(=O)([O-])[O-].[Fe+2] [ferrous sulphate monohydrate] | no significant oxidation of LC-PUFAs
